ChEMBL document CHEMBL1145670, “Additional New Maytansinoids from Trewia nudiflora: 10-Epitrewiasine and Nortrewiasine” (1983)
In brackets after ≈: the same amount, converted by molar mass.

What was measured:
Format in all cases: functional
P388 [1] = assay: In vivo antileukemic activity against mouse P388 cells at 32 mg/kg
KB = assay: Cytotoxicity against human KB cells; conditions: for EC50: Homo sapiens, KB, read-out: ED50 (the source's name)
P388 [2] = assay: In vivo antileukemic activity against mouse P388 cells at 8 mg/kg
P388 [3] = assay: In vivo antileukemic activity against mouse P388 cells at 16 mg/kg
P388 [4] = assay: In vivo antileukemic activity against mouse P388 cells at 4 mg/kg

Structure (SMILES)	EC50 (KB) [µg/mL]	T/C (P388 [2]) [%]	ED50 (KB) [×10⁻⁴ ug/ml]	T/C (P388 [3]) [%]	also measured
COc1cc2cc(c1Cl)N(C)C(=O)C[C@H](OC(=O)[C@H](C)N(C)C(=O)C(C)C)[C@]1(C)O[C@H]1[C@H](C)[C@@H]1C[C@@](O)(NC(=O)O1)[C@H](OC)/C=C/C=C(\C)C2O (stereo partly drawn) [COLUBRINOL]	< 0.001				T/C (P388 [1]): 159%
C=C(C)C(=O)N(C)[C@@H](C)C(=O)O[C@H]1CC(=O)N(C)c2cc(cc(OC)c2Cl)C(OC)/C(C)=C/C=C/[C@@H](OC)[C@@]2(O)C[C@H](OC(=O)N2)[C@@H](C)[C@@H]2O[C@@]12C (stereo partly drawn) [DEHYDROTREWIASINE]	< 0.01	172			
COc1cc2cc(c1Cl)N(C)C(=O)C[C@H](OC(=O)[C@H](C)N(C)C(=O)C(C)C)[C@]1(C)O[C@H]1[C@H](C)[C@@H]1C[C@@](O)(NC(=O)O1)[C@@H](OC)/C=C/C=C(\C)C2OC (stereo partly drawn)	< 0.001				T/C (P388 [1]): 131%
COc1cc2cc(c1Cl)N(C)C(=O)C[C@H](OC(=O)[C@H](C)N(C)C(=O)C(C)C)[C@]1(C)O[C@H]1[C@H](C)[C@@H]1C[C@@](O)(NC(=O)O1)[C@H](OC)/C=C/C=C(\C)C2OC (stereo partly drawn) [TREWIASINE]			2	154	
COc1cc2cc(c1Cl)N1CC(O)C(C)(O)C(=O)NC(C)C(=O)O[C@@H](CC1=O)[C@]1(C)O[C@H]1[C@H](C)[C@@H]1C[C@@](O)(NC(=O)O1)[C@H](OC)/C=C/C=C(\C)C2OC (stereo partly drawn) [TRENUDINE]		146	6.4		
COc1cc2cc(c1Cl)N(C)C(=O)C[C@H](OC(=O)[C@H](C)NC(=O)C(C)C)[C@]1(C)O[C@H]1[C@H](C)[C@@H]1C[C@@](O)(NC(=O)O1)[C@H](OC)/C=C/C=C(\C)C2OC (stereo partly drawn) [DEMETHYLTREWIASINE]	0.049 (≈ 0.0666 µM)	159			
COc1cc2cc(c1Cl)NC(=O)C[C@H](OC(=O)[C@H](C)N(C)C(=O)C(C)C)[C@]1(C)O[C@H]1[C@H](C)[C@@H]1C[C@@](O)(NC(=O)O1)[C@H](OC)/C=C/C=C(\C)C2OC (stereo partly drawn) [NORTREWIASINE]			<1	155	
COc1cc2cc(c1Cl)N1CCC(C)(O)C(=O)NC(C)C(=O)O[C@@H](CC1=O)[C@]1(C)O[C@H]1[C@H](C)[C@@H]1C[C@@](O)(NC(=O)O1)[C@H](OC)/C=C/C=C(\C)C2OC (stereo partly drawn) [TREFLORINE]			2.7	157	
COc1cc2cc(c1Cl)N1CC(=O)C(C)(O)C(=O)N(C)C(C)C(=O)O[C@@H](CC1=O)[C@]1(C)O[C@H]1[C@H](C)[C@@H]1C[C@@](O)(NC(=O)O1)[C@H](OC)/C=C/C=C(\C)C2OC (stereo partly drawn)	< 0.01				T/C (P388 [4]): 153%
